Here are results for 6 compounds from patent US12723063B2, “GIPR-agonist compounds” (Eli Lilly and Company, priority 2019, dated 2026).

One experiment addresses T1, human GIPR (Homo sapiens, UniProt P48546).
T1 construct: expressed in transfected cells; crude membranes
T1 sequence (P48546 22-466): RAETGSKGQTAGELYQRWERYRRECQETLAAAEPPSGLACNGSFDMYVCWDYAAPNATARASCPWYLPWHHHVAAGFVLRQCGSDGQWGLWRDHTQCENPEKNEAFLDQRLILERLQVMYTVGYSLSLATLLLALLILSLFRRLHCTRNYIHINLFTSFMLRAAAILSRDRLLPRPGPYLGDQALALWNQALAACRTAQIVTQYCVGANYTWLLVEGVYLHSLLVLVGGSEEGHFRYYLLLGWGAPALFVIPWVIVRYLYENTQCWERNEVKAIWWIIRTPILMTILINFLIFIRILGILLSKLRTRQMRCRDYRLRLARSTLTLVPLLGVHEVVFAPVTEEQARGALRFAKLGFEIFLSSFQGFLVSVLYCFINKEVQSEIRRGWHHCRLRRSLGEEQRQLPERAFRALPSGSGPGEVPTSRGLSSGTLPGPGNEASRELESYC
In words: [125I]-GIP binding, SPA with WGA beads, 0.1% bacitracin. Particulars: geometric mean, read-out: hGIPR Ki. The method, boiled down: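 Ki values are geometric means (SEM, n independent days), derived from four-parameter nonlinear regression of IC50. Membranes came from hGIPR-expressing CHO cells.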

The next experiment addresses T2, human GcgR (Homo sapiens, UniProt P47871).
T2 construct: expressed in transfected cells; crude membranes
In words: [125I]-Glucagon binding, SPA with WGA beads, 0.1% bacitracin. The settings on record: geometric mean, read-out: hGcgR Ki. Summed up:
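SPA competition binding with WGA beads on crude membranes from HEK293 cells stably expressing hGcgR. Buffer: 25 mM HEPES pH 7.4, 2.5 mM CaCl2, 1 mM MgCl2, 0.1% bacitracin, 0.003% Tween-20; 10-point 3-fold dilutions, NSB with 1 μM Gcg.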

As a reminder, the Ki is a measure of affinity in units of concentration, obtained from inhibition or displacement.

*1 amine or outer side, *2 acyl side, *3 side chain or, on linkers, in order; H or OH if unused. Where a SMILES comes first, the peptide text is derived from it. Side-chain parts run from the residue outwards. [ ]: non-standard residue; d: D form. The star is where a group is joined. C20 diacid = O=C(O)CCCCCCCCCCCCCCCCCCC(=O)*; C18 diacid = O=C(O)CCCCCCCCCCCCCCCCC(=O)*; αMePhe(2-F) = C[C@](N)(Cc1ccccc1F)C(=O)O; γGlu = O=C(O)[C@H](CCC(=O)[*:2])N[*:1]; αMeF = C[C@](N)(Cc1ccccc1)C(=O)O; 4Pal = N[C@@H](Cc1ccncc1)C(=O)O; αMeL = CC(C)C[C@](C)(N)C(=O)O; AEEA = NCCOCCOCC(=O)O; Aib = CC(C)(N)C(=O)O

T2 sequence (P47871 26-477): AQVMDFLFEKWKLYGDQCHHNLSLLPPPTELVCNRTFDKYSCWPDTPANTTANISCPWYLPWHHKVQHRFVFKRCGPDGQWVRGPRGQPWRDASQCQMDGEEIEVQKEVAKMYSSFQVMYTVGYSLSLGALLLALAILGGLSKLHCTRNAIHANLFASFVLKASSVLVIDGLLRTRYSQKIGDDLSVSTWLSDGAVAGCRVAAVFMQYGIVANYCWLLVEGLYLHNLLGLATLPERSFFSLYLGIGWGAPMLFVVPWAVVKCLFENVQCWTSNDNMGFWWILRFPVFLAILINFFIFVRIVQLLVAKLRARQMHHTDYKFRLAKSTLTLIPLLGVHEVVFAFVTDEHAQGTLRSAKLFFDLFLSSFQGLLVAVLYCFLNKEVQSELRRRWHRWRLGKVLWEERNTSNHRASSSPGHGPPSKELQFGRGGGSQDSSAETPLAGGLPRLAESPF

For `CC[C@H](C)[C@H](NC(=O)[C@H](CO)NC(=O)[C@H](Cc1ccc(O)cc1)NC(=O)[C@H](CC(=O)O)NC(=O)[C@H](CO)NC(=O)[C@@H](NC(=O)[C@](C)(Cc1ccccc1)NC(=O)[C@@H](NC(=O)CNC(=O)[C@H](CCC(=O)O)NC(=O)C(C)(C)NC(=O)[C@@H](N)Cc1ccc(O)cc1)[C@@H](C)O)[C@@H](C)CC)C(=O)N[C@@H](C)C(=O)N[C@@H](CC(C)C)C(=O)N[C@@H](CC(=O)O)C(=O)N[C@@H](CCCCN)C(=O)N[C@@H](CCCCNC(=O)COCCOCCNC(=O)COCCOCCNC(=O)CC[C@H](NC(=O)CCCCCCCCCCCCCCCCCCC(=O)O)C(=O)O)C(=O)N[C@@H](Cc1c[nH]cn1)C(=O)N[C@@H](CCC(N)=O)C(=O)NC(C)(C)C(=O)N[C@@H](CC(=O)O)C(=O)N[C@@H](Cc1ccccc1)C(=O)N[C@H](C(=O)N[C@@H](CCC(=O)O)C(=O)N[C@@H](Cc1ccncc1)C(=O)N[C@@H](CC(C)C)C(=O)N[C@@H](CC(C)C)C(=O)N[C@@H](CCC(=O)O)C(=O)N[C@@H](CCC(N)=O)C(=O)NCC(=O)N1CCC[C@H]1C(=O)N[C@@H](CO)C(=O)N[C@@H](CO)C(=O)NCC(=O)N[C@@H](C)C(=O)N1CCC[C@H]1C(=O)N1CCC[C@H]1C(=O)N1CCC[C@H]1C(=O)N[C@@H](CO)C(N)=O)C(C)C` [Example 42] (H-Y[Aib]EGT[αMeF]ISDYSIALDKK([AEEA-AEEA-γGlu-C20 diacid])HQ[Aib]DFVE[4Pal]LLEQGPSSGAPPPS-NH2), the inhibition constant (Ki) stood at 0.0392 nM at human GIPR and 99.1 nM on human GcgR.

For `CC[C@H](C)[C@H](NC(=O)[C@H](CO)NC(=O)[C@H](Cc1ccc(O)cc1)NC(=O)[C@H](CC(=O)O)NC(=O)[C@H](CO)NC(=O)[C@@H](NC(=O)[C@](C)(Cc1ccccc1F)NC(=O)[C@@H](NC(=O)CNC(=O)[C@H](CCC(=O)O)NC(=O)[C@H](C)NC(=O)[C@@H](Cc1ccc(O)cc1)NC(C)=O)[C@@H](C)O)[C@@H](C)CC)C(=O)N[C@@H](C)C(=O)N[C@@H](CC(C)C)C(=O)N[C@@H](CC(=O)O)C(=O)N[C@@H](CCCCN)C(=O)N[C@@H](CCCCNC(=O)COCCOCCNC(=O)COCCOCCNC(=O)CC[C@H](NC(=O)CCCCCCCCCCCCCCCCCCC(=O)O)C(=O)O)C(=O)N[C@@H](Cc1c[nH]cn1)C(=O)N[C@@H](CCC(N)=O)C(=O)NC(C)(C)C(=O)N[C@@H](CCC(=O)O)C(=O)N[C@@H](Cc1ccccc1)C(=O)N[C@H](C(=O)N[C@@H](CC(N)=O)C(=O)N[C@@H](Cc1ccc(O)cc1)C(=O)N[C@@H](CC(C)C)C(=O)N[C@@H](CC(C)C)C(=O)N[C@@H](CCC(=O)O)C(=O)NCC(=O)NCC(=O)N1CCC[C@H]1C(=O)N[C@@H](CO)C(=O)N[C@@H](CO)C(=O)NCC(=O)N[C@@H](C)C(=O)N1CCC[C@H]1C(=O)N1CCC[C@H]1C(=O)N1CCC[C@H]1C(=O)N[C@@H](CO)C(N)=O)C(C)C` [Example 33] (Ac-[dY]AEGT[αMePhe(2-F)]ISDYSIALDKK([AEEA-AEEA-γGlu-C20 diacid])HQ[Aib]EFVNYLLEGGPSSGAPPPS-NH2), the Ki stood at 0.0369 nM at human GIPR and 63.5 nM on human GcgR.

Turning to `CC[C@H](C)[C@H](NC(=O)[C@H](CO)NC(=O)[C@H](Cc1ccc(O)cc1)NC(=O)[C@H](CC(=O)O)NC(=O)[C@H](CO)NC(=O)[C@@H](NC(=O)[C@](C)(Cc1ccccc1)NC(=O)[C@@H](NC(=O)CNC(=O)[C@H](CCC(=O)O)NC(=O)C(C)(C)NC(=O)[C@@H](N)Cc1ccc(O)cc1)[C@@H](C)O)[C@@H](C)CC)C(=O)N[C@@H](C)C(=O)N[C@@H](CC(C)C)C(=O)N[C@@H](CC(=O)O)C(=O)N[C@@H](CCCCN)C(=O)N[C@@H](CCCCNC(=O)COCCOCCNC(=O)COCCOCCNC(=O)CC[C@H](NC(=O)CCCCCCCCCCCCCCCCCCC(=O)O)C(=O)O)C(=O)N[C@@H](Cc1c[nH]cn1)C(=O)N[C@@H](CCC(N)=O)C(=O)NC(C)(C)C(=O)N[C@@H](CC(=O)O)C(=O)N[C@@H](Cc1ccccc1)C(=O)N[C@H](C(=O)N[C@@H](CCC(=O)O)C(=O)N[C@@H](Cc1ccncc1)C(=O)N[C@@H](CC(C)C)C(=O)N[C@@H](CC(C)C)C(=O)N[C@@H](CCC(=O)O)C(=O)NCC(=O)NCC(=O)N1CCC[C@H]1C(=O)N[C@@H](CO)C(=O)N[C@@H](CO)C(=O)NCC(=O)N[C@@H](C)C(=O)N1CCC[C@H]1C(=O)N1CCC[C@H]1C(=O)N1CCC[C@H]1C(=O)N[C@@H](CO)C(N)=O)C(C)C` [Example 44] (H-Y[Aib]EGT[αMeF]ISDYSIALDKK([AEEA-AEEA-γGlu-C20 diacid])HQ[Aib]DFVE[4Pal]LLEGGPSSGAPPPS-NH2), the Ki at human GIPR is 0.059 nM; on human GcgR, 50 nM.

Take `CC[C@H](C)[C@H](NC(=O)[C@H](Cc1ccccc1)NC(=O)[C@@H](NC(=O)CNC(=O)[C@H](CCC(=O)O)NC(=O)C(C)(C)NC(=O)[C@@H](N)Cc1ccc(O)cc1)[C@@H](C)O)C(=O)N[C@@H](CO)C(=O)N[C@@H](CC(=O)O)C(=O)N[C@@H](Cc1ccc(O)cc1)C(=O)N[C@@H](CO)C(=O)N[C@H](C(=O)N[C@@](C)(CC(C)C)C(=O)N[C@@H](CC(C)C)C(=O)N[C@@H](CC(=O)O)C(=O)N[C@@H](CCCCN)C(=O)N[C@@H](CCCCNC(=O)COCCOCCNC(=O)COCCOCCNC(=O)CC[C@H](NC(=O)CCCCCCCCCCCCCCCCCCC(=O)O)C(=O)O)C(=O)N[C@@H](Cc1c[nH]cn1)C(=O)N[C@@H](CCC(N)=O)C(=O)NC(C)(C)C(=O)N[C@@H](CCC(=O)O)C(=O)N[C@@H](Cc1ccccc1)C(=O)N[C@H](C(=O)N[C@@H](CCC(=O)O)C(=O)N[C@@H](Cc1ccc(O)cc1)C(=O)N[C@@H](CC(C)C)C(=O)N[C@@H](CC(C)C)C(=O)N[C@@H](CCC(=O)O)C(=O)N[C@@H](CCC(N)=O)C(=O)NCC(=O)N1CCC[C@H]1C(=O)N[C@@H](CO)C(=O)N[C@@H](CO)C(=O)NCC(=O)N[C@@H](C)C(=O)N1CCC[C@H]1C(=O)N1CCC[C@H]1C(=O)N1CCC[C@H]1C(=O)N[C@@H](CO)C(N)=O)C(C)C)[C@@H](C)CC` [Example 63] (H-Y[Aib]EGTFISDYSI[αMeL]LDKK([AEEA-AEEA-γGlu-C20 diacid])HQ[Aib]EFVEYLLEQGPSSGAPPPS-NH2): the results for the Ki on human GIPR and at human GcgR were 0.0248 nM and 185 nM, respectively.

For the compound `CC[C@H](C)[C@H](NC(=O)[C@H](CO)NC(=O)[C@H](Cc1ccc(O)cc1)NC(=O)[C@H](CC(=O)O)NC(=O)[C@H](CO)NC(=O)[C@@H](NC(=O)[C@H](CC(C)C)NC(=O)[C@@H](NC(=O)CNC(=O)[C@H](CCC(=O)O)NC(=O)[C@@H](C)NC(=O)[C@@H](N)Cc1ccc(O)cc1)[C@@H](C)O)[C@@H](C)CC)C(=O)N[C@@H](CC(C)C)C(=O)N[C@@H](CC(C)C)C(=O)N[C@@H](CC(=O)O)C(=O)N[C@@H](CCCCN)C(=O)N[C@@H](CCCCNC(=O)COCCOCCNC(=O)COCCOCCNC(=O)CC[C@H](NC(=O)CCCCCCCCCCCCCCCCC(=O)O)C(=O)O)C(=O)N[C@@H](C)C(=O)N[C@@H](CCC(N)=O)C(=O)NC(C)(C)C(=O)N[C@@H](CC(=O)O)C(=O)N[C@@H](Cc1ccccc1)C(=O)N[C@H](C(=O)N[C@@H](CC(N)=O)C(=O)N[C@@H](Cc1c[nH]c2ccccc12)C(=O)N[C@@H](CC(C)C)C(=O)N[C@@H](CC(C)C)C(=O)N[C@@H](C)C(=O)N[C@@H](CCC(N)=O)C(=O)NCC(=O)N1CCC[C@H]1C(=O)N[C@@H](CO)C(=O)N[C@@H](CO)C(=O)NCC(=O)N[C@@H](C)C(=O)N1CCC[C@H]1C(=O)N1CCC[C@H]1C(=O)N1CCC[C@H]1C(=O)N[C@@H](CO)C(N)=O)C(C)C` [Example 32] (H-Y[dA]EGTLISDYSILLDKK([AEEA-AEEA-γGlu-C18 diacid])AQ[Aib]DFVNWLLAQGPSSGAPPPS-NH2), the inhibition constant (Ki) on human GIPR is 0.0343 nM; at human GcgR, over 959 nM.

Turning to `CC[C@H](C)[C@H](NC(=O)[C@H](CO)NC(=O)[C@H](Cc1ccc(O)cc1)NC(=O)[C@H](CC(=O)O)NC(=O)[C@H](CO)NC(=O)[C@@H](NC(=O)[C@](C)(Cc1ccccc1)NC(=O)[C@@H](NC(=O)CNC(=O)[C@H](CCC(=O)O)NC(=O)C(C)(C)NC(=O)[C@@H](N)Cc1ccc(O)cc1)[C@@H](C)O)[C@@H](C)CC)C(=O)N[C@@](C)(CC(C)C)C(=O)N[C@@H](CC(C)C)C(=O)N[C@@H](CC(=O)O)C(=O)N[C@@H](CCCCN)C(=O)N[C@@H](CCCCNC(=O)COCCOCCNC(=O)COCCOCCNC(=O)CC[C@H](NC(=O)CCCCCCCCCCCCCCCCCCC(=O)O)C(=O)O)C(=O)N[C@@H](Cc1c[nH]cn1)C(=O)N[C@@H](CCC(N)=O)C(=O)NC(C)(C)C(=O)N[C@@H](CC(=O)O)C(=O)N[C@@H](Cc1ccccc1)C(=O)N[C@H](C(=O)N[C@@H](CCC(=O)O)C(=O)N[C@@H](Cc1ccncc1)C(=O)N[C@@H](CC(C)C)C(=O)N[C@@H](CC(C)C)C(=O)N[C@@H](C)C(=O)NCC(=O)NCC(=O)N1CCC[C@H]1C(=O)N[C@@H](CO)C(=O)N[C@@H](CO)C(=O)NCC(=O)N[C@@H](C)C(=O)N1CCC[C@H]1C(=O)N1CCC[C@H]1C(=O)N1CCC[C@H]1C(=O)N[C@@H](CO)C(N)=O)C(C)C` [Example 50] (H-Y[Aib]EGT[αMeF]ISDYSI[αMeL]LDKK([AEEA-AEEA-γGlu-C20 diacid])HQ[Aib]DFVE[4Pal]LLAGGPSSGAPPPS-NH2), the Ki at human GIPR is 0.0501 nM; at human GcgR, 23.4 nM.
